Test results taken from ChEMBL document CHEMBL1201861, “Genomics of Drug Sensitity in Cancer screening data, Wellcome Trust Sanger Institute”.
pIC50: −log10 of the molar value.

Legend:
Assay in all cases: cells
Conditions in all cases: Homo sapiens
NCI-H1299 = format: functional, cell-based;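 also: growth inhibition of human NCI-H1299 cells, read out by a cell viability assay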
Description: SANGER: Inhibition of human NCI-H1299 cell growth in a cell viability assay.

HDLM-2 = format: functional, cell-based;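 also: cell viability assay measuring suppression of HDLM-2 proliferation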
Description: SANGER: Inhibition of human HDLM-2 cell growth in a cell viability assay.

DMS-114 = format: functional, cell-based
TE-11 = format: functional, cell-based;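 also: growth inhibition of human TE-11 cells, read out by a cell viability assay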
Description: SANGER: Inhibition of human TE-11 cell growth in a cell viability assay.

MHH-PREB-1 = format: functional, cell-based;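 also: cell viability assay measuring inhibition of proliferation of human MHH-PREB-1 cells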
Description: SANGER: Inhibition of human MHH-PREB-1 cell growth in a cell viability assay.

C8166 = format: functional, cell-based;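 also: growth inhibition of human C8166 cells measured by a cell viability assay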
Description: SANGER: Inhibition of human C8166 cell growth in a cell viability assay.

NOS-1 = format: functional, cell-based;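 also: growth inhibition of the human NOS-1 cell line, read out with a cell viability assay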
Description: SANGER: Inhibition of human NOS-1 cell growth in a cell viability assay.

A3-KAW = format: functional, cell-based;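 also: growth inhibition of human A3-KAW cells, read out with a cell viability assay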
Description: SANGER: Inhibition of human A3-KAW cell growth in a cell viability assay.

ES6 = format: functional, cell-based;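 also: growth inhibition of human ES6 cells, read out with a cell viability assay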
Description: SANGER: Inhibition of human ES6 cell growth in a cell viability assay.

MS-1 = format: functional, cell-based
Description: SANGER: Inhibition of human MS-1 cell growth in a cell viability assay.

LAMA-84 = format: functional, cell-based;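 also: growth inhibition of LAMA-84 cells, read out with a cell viability assay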
Description: SANGER: Inhibition of human LAMA-84 cell growth in a cell viability assay.

MC116 = format: functional, cell-based;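 also: growth inhibition of MC116 cells, read out with a cell viability assay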
Description: SANGER: Inhibition of human MC116 cell growth in a cell viability assay.

ES7 = format: functional, cell-based;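 also: growth inhibition of cultured human ES7 cells, read out as cell viability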
Description: SANGER: Inhibition of human ES7 cell growth in a cell viability assay.

TK-10 = format: functional, cell-based;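 also: growth inhibition of TK-10 cells, read out in a cell viability assay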
Description: SANGER: Inhibition of human TK10 cell growth in a cell viability assay.

RCC10RGB = format: functional, cell-based;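 also: growth inhibition of human RCC10RGB cells, read out by a cell viability assay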
Description: SANGER: Inhibition of human RCC10RGB cell growth in a cell viability assay.

IST-MEL1 = format: functional, cell-based;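 also: growth inhibition of the cell line, read out with a cell viability assay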
Description: SANGER: Inhibition of human IST-MEL1 cell growth in a cell viability assay.

L-363 = format: functional, cell-based
Description: SANGER: Inhibition of human L-363 cell growth in a cell viability assay.

SF-126 = format: functional, cell-based;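 also: growth inhibition of human SF126 cells, read out with a cell viability assay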
Description: SANGER: Inhibition of human SF126 cell growth in a cell viability assay.

TE-12 = format: functional, cell-based;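 also: growth inhibition of TE-12 cells, read out by a cell viability assay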
Description: SANGER: Inhibition of human TE-12 cell growth in a cell viability assay.

NB5 = format: functional, cell-based;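 also: growth inhibition of NB5 cells, read out as cell viability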
Description: SANGER: Inhibition of human NB5 cell growth in a cell viability assay.

A704 = format: functional, cell-based;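 also: growth inhibition of human A704 cells, read out with a cell viability assay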
Description: SANGER: Inhibition of human A704 cell growth in a cell viability assay.

Calu-6 = format: functional, cell-based;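 also: growth of human Calu-6 cells, read out by a cell viability assay, IC50 marking inhibition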
Description: SANGER: Inhibition of human Calu-6 cell growth in a cell viability assay.

DJM-1 = format: functional, cell-based;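 also: growth inhibition of human DJM-1 cells, read out by a cell viability assay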
Description: SANGER: Inhibition of human DJM-1 cell growth in a cell viability assay.

IA-LM = format: functional, cell-based;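 also: cell viability assay measuring growth inhibition of human IA-LM cells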
Description: SANGER: Inhibition of human IA-LM cell growth in a cell viability assay.

BB65-RCC = format: functional, cell-based;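 also: growth inhibition of the cell line, measured with a cell viability assay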
Description: SANGER: Inhibition of human BB65-RCC cell growth in a cell viability assay.

EM-2 = format: functional, cell-based;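 also: growth inhibition of EM-2 cells, read out with a cell viability assay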
Description: SANGER: Inhibition of human EM-2 cell growth in a cell viability assay.

KGN = format: functional, cell-based;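 also: growth inhibition of KGN cells, read out with a cell viability assay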
Description: SANGER: Inhibition of human KGN cell growth in a cell viability assay.

NCI-H1770 = format: functional, cell-based;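 also: growth inhibition of NCI-H1770 cells determined with a viability readout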
Description: SANGER: Inhibition of human NCI-H1770 cell growth in a cell viability assay.

MLMA = format: functional, cell-based;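 also: growth inhibition of MLMA cells (human), determined through a cell viability readout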
Description: SANGER: Inhibition of human MLMA cell growth in a cell viability assay.

RPMI-8866 = format: functional, cell-based
Description: SANGER: Inhibition of human RPMI-8866 cell growth in a cell viability assay.

no-10 = format: functional, cell-based;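 also: growth inhibition of no-10 cells, read out with a cell viability assay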
Description: SANGER: Inhibition of human no-10 cell growth in a cell viability assay.

MZ7-mel = format: functional, cell-based;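 also: growth inhibition of human MZ7-mel cells, measured by a cell viability assay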
Description: SANGER: Inhibition of human MZ7-mel cell growth in a cell viability assay.

SK-MEL-2 = format: functional, cell-based;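 also: growth inhibition of human SK-MEL-2 cells measured with a cell viability assay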
Description: SANGER: Inhibition of human SK-MEL-2 cell growth in a cell viability assay.

JVM-3 = format: functional, cell-based;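 also: growth inhibition of human JVM-3 cells, read out with a cell viability assay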
Description: SANGER: Inhibition of human JVM-3 cell growth in a cell viability assay.

GCIY = format: functional, cell-based;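 also: growth inhibition of the human GCIY cell line, read out by a cell viability assay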
Description: SANGER: Inhibition of human GCIY cell growth in a cell viability assay.

SK-N-DZ = format: functional, cell-based;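 also: growth inhibition of the cancer cell line, read out through a viability assay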
Description: SANGER: Inhibition of human SK-N-DZ cell growth in a cell viability assay.

A388 = format: functional, cell-based;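 also: growth inhibition of human A388 cells, read out with a cell viability assay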
Description: SANGER: Inhibition of human A388 cell growth in a cell viability assay.

MZ1-PC = format: functional, cell-based;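 also: cell viability assay measuring growth inhibition of human MZ1-PC cells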
Description: SANGER: Inhibition of human MZ1-PC cell growth in a cell viability assay.

HCC1187 = format: functional, cell-based;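 also: growth inhibition of HCC1187 cells, read out with a cell viability assay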
Description: SANGER: Inhibition of human HCC1187 cell growth in a cell viability assay.

ES8 = format: functional, cell-based;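 also: growth inhibition of human ES8 cells, read out with a cell viability assay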
Description: SANGER: Inhibition of human ES8 cell growth in a cell viability assay.

MV4-11 = format: functional, cell-based, MV-4-11;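 also: cell viability readout measuring growth inhibition of human MV-4-11 cells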
Description: SANGER: Inhibition of human MV-4-11 cell growth in a cell viability assay.

NCI-H23 = format: functional, cell-based;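 also: cell viability assay measuring growth inhibition of NCI-H23 cells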
Description: SANGER: Inhibition of human NCI-H23 cell growth in a cell viability assay.

HOP-62 = format: functional, cell-based;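 also: cell growth inhibition determined with a viability assay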
Description: SANGER: Inhibition of human HOP-62 cell growth in a cell viability assay.

NB69 = format: functional, cell-based;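 also: growth inhibition of NB69 cells, determined by a cell viability assay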
Description: SANGER: Inhibition of human NB69 cell growth in a cell viability assay.

ES3 = format: functional, cell-based;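 also: growth inhibition of ES3 cells, read out with a cell viability assay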
Description: SANGER: Inhibition of human ES3 cell growth in a cell viability assay.

KP-N-YS = format: functional, cell-based;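 also: cell viability assay measuring inhibition of cell line growth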
Description: SANGER: Inhibition of human KP-N-YS cell growth in a cell viability assay.

NCI-H82 = format: functional, cell-based;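 also: growth inhibition of NCI-H82 cells, measured with a cell viability readout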
Description: SANGER: Inhibition of human NCI-H82 cell growth in a cell viability assay.

DEL = format: functional, cell-based;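 also: growth inhibition of the human DEL cell line, read out with a cell viability assay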
Description: SANGER: Inhibition of human DEL cell growth in a cell viability assay.

NCI-H747 = format: functional, cell-based;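 also: growth inhibition of human NCI-H747 cells, read out by a cell viability assay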
Description: SANGER: Inhibition of human NCI-H747 cell growth in a cell viability assay.

SNU1 = format: functional, cell-based;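 also: growth inhibition of human NCI-SNU-1 cells, measured with a cell viability assay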
Description: SANGER: Inhibition of human NCI-SNU-1 cell growth in a cell viability assay.

NCI-H446 = format: functional, cell-based;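 also: growth inhibition of NCI-H446 cells determined by a cell viability assay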
Description: SANGER: Inhibition of human NCI-H446 cell growth in a cell viability assay.

Becker = format: functional, cell-based;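 also: growth inhibition of Becker cells, read out with a cell viability assay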
Description: SANGER: Inhibition of human Becker cell growth in a cell viability assay.

RXF 393 = format: functional, cell-based;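 also: growth inhibition of human RXF 393 cells, read out with a cell viability assay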
Description: SANGER: Inhibition of human RXF393 cell growth in a cell viability assay.

PSN1 = format: functional, cell-based;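 also: suppression of growth of human PSN1 cells, read out by a cell viability assay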
Description: SANGER: Inhibition of human PSN1 cell growth in a cell viability assay.

GT3TKB = format: functional, cell-based
Description: SANGER: Inhibition of human GT3TKB cell growth in a cell viability assay.

ES4 = format: functional, cell-based
Description: SANGER: Inhibition of human ES4 cell growth in a cell viability assay.

HEL = format: functional, cell-based
Description: SANGER: Inhibition of human HEL cell growth in a cell viability assay.

D-502MG = format: functional, cell-based
Description: SANGER: Inhibition of human D-502MG cell growth in a cell viability assay.

NCI-H2126 = format: functional, cell-based
Description: SANGER: Inhibition of human NCI-H2126 cell growth in a cell viability assay.

NB13 = format: functional, cell-based
Description: SANGER: Inhibition of human NB13 cell growth in a cell viability assay.

HCC2218 = format: functional, cell-based
Description: SANGER: Inhibition of human HCC2218 cell growth in a cell viability assay.

LU-139 = format: functional, cell-based
Description: SANGER: Inhibition of human LU-139 cell growth in a cell viability assay.

NCI-H720 = format: functional, cell-based
Description: SANGER: Inhibition of human NCI-H720 cell growth in a cell viability assay.

SBC-1 = format: functional, cell-based
Description: SANGER: Inhibition of human SBC-1 cell growth in a cell viability assay.

O=c1cc(N2CCOCC2)oc2c(-c3cccc4c3sc3ccccc34)cccc12
pIC50 (NCI-H1299): < 5.70 | pIC50 (HDLM-2): 6.49 | pIC50 (DMS-114): < 5.70 | pIC50 (TE-11): < 5.70 | pIC50 (MHH-PREB-1): < 5.70 | pIC50 (C8166): < 5.70 | pIC50 (NOS-1): < 5.70 | pIC50 (A3-KAW): < 5.70 | pIC50 (ES6): < 5.70 | pIC50 (MS-1): < 5.70 | pIC50 (LAMA-84): 6.01 | pIC50 (MC116): < 5.70 | pIC50 (ES7): < 5.70 | pIC50 (TK-10): < 5.70 | pIC50 (RCC10RGB): < 5.70 | pIC50 (IST-MEL1): < 5.70 | pIC50 (L-363): < 5.70 | pIC50 (SF-126): < 5.70 | pIC50 (TE-12): < 5.70 | pIC50 (NB5): < 5.70 | pIC50 (A704): < 5.70 | pIC50 (Calu-6): < 5.70 | pIC50 (DJM-1): < 5.70 | pIC50 (IA-LM): < 5.70 | pIC50 (BB65-RCC): < 5.70 | pIC50 (EM-2): < 5.70 | pIC50 (KGN): < 5.70 | pIC50 (NCI-H1770): 7.67 | pIC50 (MLMA): < 5.70 | pIC50 (RPMI-8866): < 5.70 | pIC50 (no-10): < 5.70 | pIC50 (MZ7-mel): < 5.70 | pIC50 (SK-MEL-2): < 5.70 | pIC50 (JVM-3): < 5.70 | pIC50 (GCIY): < 5.70 | pIC50 (SK-N-DZ): < 5.70 | pIC50 (A388): < 5.70 | pIC50 (MZ1-PC): < 5.70 | pIC50 (HCC1187): < 5.70 | pIC50 (ES8): < 5.70 | pIC50 (MV4-11): < 5.70 | pIC50 (NCI-H23): < 5.70 | pIC50 (HOP-62): < 5.70 | pIC50 (NB69): < 5.70 | pIC50 (ES3): < 5.70 | pIC50 (KP-N-YS): 5.94 | pIC50 (NCI-H82): < 5.70 | pIC50 (DEL): < 5.70 | pIC50 (NCI-H747): < 5.70 | pIC50 (SNU1): 6.21 | pIC50 (NCI-H446): < 5.70 | pIC50 (Becker): < 5.70 | pIC50 (RXF 393): < 5.70 | pIC50 (PSN1): < 5.70 | pIC50 (GT3TKB): < 5.70 | pIC50 (ES4): < 5.70 | pIC50 (HEL): < 5.70 | pIC50 (D-502MG): < 5.70 | pIC50 (NCI-H2126): < 5.70 | pIC50 (NB13): < 5.70

Cn1c(=O)n(-c2ccc(C(C)(C)C#N)cc2)c2c3cc(-c4cnc5ccccc5c4)ccc3ncc21 [DACTOLISIB]
pIC50 (NCI-H1299): 6.82 | pIC50 (HDLM-2): < 5.70 | pIC50 (DMS-114): 6.90 | pIC50 (TE-11): 7.25 | pIC50 (MHH-PREB-1): 8.04 | pIC50 (C8166): < 5.70 | pIC50 (NOS-1): 7.52 | pIC50 (A3-KAW): 7.54 | pIC50 (ES6): 7.03 | pIC50 (MS-1): 6.97 | pIC50 (LAMA-84): 7.45 | pIC50 (MC116): 7.24 | pIC50 (ES7): 7.74 | pIC50 (TK-10): 7.00 | pIC50 (RCC10RGB): 6.65 | pIC50 (IST-MEL1): 7.73 | pIC50 (L-363): 7.97 | pIC50 (SF-126): 7.71 | pIC50 (TE-12): 6.85 | pIC50 (NB5): 7.39 | pIC50 (A704): 7.25 | pIC50 (Calu-6): < 5.70 | pIC50 (DJM-1): 6.47 | pIC50 (IA-LM): 6.97 | pIC50 (BB65-RCC): 7.90 | pIC50 (EM-2): 7.26 | pIC50 (KGN): 7.25 | pIC50 (NCI-H1770): 6.49 | pIC50 (MLMA): 6.86 | pIC50 (RPMI-8866): 7.14 | pIC50 (no-10): 6.70 | pIC50 (MZ7-mel): 6.49 | pIC50 (SK-MEL-2): 7.11 | pIC50 (HCC2218): 8.18 | pIC50 (JVM-3): 7.51 | pIC50 (GCIY): 7.30 | pIC50 (SK-N-DZ): < 5.70 | pIC50 (A388): 6.60 | pIC50 (MZ1-PC): 6.69 | pIC50 (HCC1187): 6.24 | pIC50 (ES8): 7.96 | pIC50 (MV4-11): 7.54 | pIC50 (NCI-H23): 6.66 | pIC50 (LU-139): 8.11 | pIC50 (NB69): 7.65 | pIC50 (ES3): 7.60 | pIC50 (KP-N-YS): 6.73 | pIC50 (NCI-H720): 8.45 | pIC50 (NCI-H82): < 5.70 | pIC50 (DEL): 7.69 | pIC50 (SBC-1): > 8.11 | pIC50 (NCI-H747): 6.92 | pIC50 (SNU1): 7.66 | pIC50 (NCI-H446): 7.02 | pIC50 (Becker): 7.47 | pIC50 (RXF 393): 7.67 | pIC50 (PSN1): 7.35 | pIC50 (GT3TKB): 6.93 | pIC50 (ES4): 7.68 | pIC50 (HEL): 6.96 | pIC50 (D-502MG): 6.98 | pIC50 (NCI-H2126): 6.83 | pIC50 (NB13): 6.93
